# Assay results from PMC11859031, “Assessment of the In Vitro Biological Activities of Schiff Base-Synthesized Copper Oxide Nanoparticles as an Anti-Diabetic, Anti-Alzheimer, and Anti-Cancer Agent” (Pharmaceutics, 2025).
# Assays:
# [1] = target: T1, 5-LOX enzyme (human recombinant) (Homo sapiens, UniProt P09917); assay: 5-Lipoxygenase inhibition assay; format: biochemical; settings: mean ± SE, n = 3
# T1 construct: purchased Sigma-Aldrich 437996
# T1 sequence (P09917 1-674): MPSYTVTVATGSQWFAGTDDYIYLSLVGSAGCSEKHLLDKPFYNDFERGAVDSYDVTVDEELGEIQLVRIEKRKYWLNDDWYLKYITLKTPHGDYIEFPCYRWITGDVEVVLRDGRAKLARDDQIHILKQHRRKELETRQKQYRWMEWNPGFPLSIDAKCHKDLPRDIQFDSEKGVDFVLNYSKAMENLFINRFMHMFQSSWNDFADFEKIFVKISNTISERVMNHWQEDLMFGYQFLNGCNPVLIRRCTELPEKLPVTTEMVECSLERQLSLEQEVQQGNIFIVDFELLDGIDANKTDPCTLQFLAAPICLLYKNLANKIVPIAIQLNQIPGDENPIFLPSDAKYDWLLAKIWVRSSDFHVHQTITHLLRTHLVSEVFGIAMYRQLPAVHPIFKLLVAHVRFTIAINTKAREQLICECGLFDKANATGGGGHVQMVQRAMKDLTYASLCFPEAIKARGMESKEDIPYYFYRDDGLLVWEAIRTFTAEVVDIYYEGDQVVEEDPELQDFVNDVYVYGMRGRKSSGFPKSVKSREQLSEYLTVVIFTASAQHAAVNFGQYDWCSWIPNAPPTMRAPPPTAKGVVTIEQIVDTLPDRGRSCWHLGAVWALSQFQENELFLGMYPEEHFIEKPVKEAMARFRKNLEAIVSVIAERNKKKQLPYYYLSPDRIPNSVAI
# [2] = tested on: caspase-3 in Caco-2 cells; assay: Caspase-3 ELISA in treated Caco-2 cells; format: cell-based, human; settings: Caco-2 cells treated at the IC50 value, mean ± SE, n = 3
# Procedure: Following the treatment of HepG-2, Caco-2, A549, and BJ-1 cells with the SB-CuO-NPs at their respective IC50 values, as illustrated in Figure 9 and detailed in Table 5, an assessment of the activities of the caspase-3 and Bcl-2 enzymes was conducted in the treated cells. […] This mechanism ultimately triggers apoptosis. Additionally, the increased activity of caspase-3 results in a decrease in the expression of cyclin D1 and CDK-2 mRNA, thereby promoting the arrest of the G1 phase of the cell cycle. Othman et al. further noted that the biosynthesized M-NPs facilitate apoptosis by inhibiting the expression of the PI3K/AKT and Ras/Raf/ERK protein signaling pathways.
# Invitrogen Corporation, following the manufacturer's instructions.
smiles,measurement,setting,value
Cc1nn(-c2ccccc2)c(Cl)c1C=NN=C1C(=O)Nc2ccccc21 [SB],inhibition at 100 µg/mL,"[1]; at 100 µg/mL, read-out: 5-LOX Inhib. (%)",26.71 ± 0.18%
same,IC50,[1],36.6 µM
same,Caspase-3,[2],144.28 ± 0.22 pg/mL
